Consider 88 compounds from a melting point compilation (Tetko et al.; mined from patent text by program, amines drawn as free bases though some values may be those of a salt).

Bounds are passed on as bounds.

As a reminder, the melting point is the temperature of the solid-liquid transition. Take `COc1ccc2cc(-c3ccc(Br)cc3)[nH]c(=O)c2c1`: the melting point was more than 250 °C.
Take `COc1ccc(C(=O)c2ccccn2)cc1`: the melting point lay in the range of 96 to 98 °C.
Then `COC(=O)c1ccc(C(O)c2cnn3c(N(C)c4ccccc4)ncnc23)cc1` (stereo not drawn), with 68 °C; and `CC1(C)OC(=O)C(c2ccc(-c3cscn3)cc2)=C1c1ccc(S(C)(=O)=O)cc1`, with 216 °C; and `CCCc1cc(C(=O)NC2=NC(=O)CN2C)ccc1OC(C(=O)NS(=O)(=O)c1ccc(C(C)C)cc1)c1ccc2c(c1)OCO2` (stereo not drawn), with 137 to 139 °C.
`O=C(O)COc1cccc2c(CNS(=O)(=O)Cc3ccccc3)coc12` returned a melting point of 191 to 192 °C.
Then `COc1cc2cnc(C(=O)O)cc2cc1OC`, with 228 °C; and `CCOC(=O)Cc1c2cc(OC)ccc2n2c(Cc3ccccn3)nccc12`, with 103 to 104 °C.
On to `Cc1ccc(Cn2c(=O)c3c(N4CCN(C)CC4)cc(Cl)cc3n(Cc3ccccc3)c2=O)cc1`, for which the melting point was in the range of 92 to 97 °C.
In turn, `CCCCCCCCCCCCCCCSCCO` showed a melting point of 44 to 46 °C.
The same measure for `CCOC(=O)c1cc2c(s1)CC(C)(C)C2=O`: 41 to 42 °C; for `COc1cc(F)c(C(=O)Oc2ccc(C(=O)O)cc2)cc1C12CC3CC(CC(C3)C1)C2`: 268 to 270 °C.
Then `COc1ccc(NC(=O)c2ccc(-c3ccncc3)s2)cc1N1CCN(C)CC1`, with 191 to 194 °C; and `CCOC(=O)c1nc(O)sc1C(C)=O`, with 105 to 108 °C.
As for `CC(C)OC(=O)Cn1c(=O)n(C)c(=O)n(-c2cc(N3C(=O)C4CS(=O)CCN4C3=O)c(F)cc2Cl)c1=O` (stereo not drawn), the melting point lay in the range of 175 to 180 °C.
For `C#Cc1c(OC)nc(C)nc1C(F)(F)F`, the melting point amounted to 77 °C.
`Cn1cc(OS(C)(=O)=O)c(=O)c2ccccc21` showed a melting point of 208 to 209 °C.
On to `O=C1C(=CO)Cc2c1cnn2Cc1ccccc1`, for which the melting point was in the range of 171 to 172 °C.
The same measure for `CN1CC(CCCN2CCN(c3ncccn3)CC2)OC1=O` (stereo not drawn): 79 to 89 °C; for `C=COCCOc1ccc(Oc2ccccc2)cc1`: 51 to 52 °C.
With `CCCc1c(COc2ccc(C(=O)Cc3nnn[nH]3)cc2)ccc(C(C)=O)c1O`, the melting point was 207 to 209 °C.
Then `CS(=O)C1C=Nc2cc(Br)ccc2C1=O` (stereo not drawn), with 255 to 256 °C.
For the compound `Cc1cc(-n2ccnc2)c2cccc(OCc3c(Cl)ccc(S(=O)(=O)N4CCC[C@H]4C(=O)NCC4CCN(C(=O)c5ccccc5)CC4)c3Cl)c2n1`, the melting point stood at 102 °C.
Then `Cc1ccc(Cl)c(-c2cc(=O)c3c(O)cc(O)c([C@@H]4CCN(C)[C@H]4CO)c3o2)c1`, with 206 to 208 °C.
Compound `c1cnc2[nH]c(-c3ccc(C4OCCCO4)cc3)cc2n1` yielded a melting point of 288 to 289 °C.
In the case of `O=C(Nc1ccccc1)Nc1[nH]c2ccccc2c1-c1ccccc1`, the melting point was in the range of 210 to 212 °C.
On to `Cn1nc(-c2c(F)cccc2Cl)nc1-c1ccc(Cc2ccc(Cl)c(Cl)c2)c(Cl)c1`, for which the melting point is 179 to 185 °C.
Then `O=C1C(c2c[nH]c3ccccc23)C(c2c[nH]c3ccccc23)C(=O)N1c1ccccc1` (stereo not drawn), with 260 to 263 °C.
Then `O=[N+]([O-])c1ccc(S(=O)(=O)Nc2ccc(O)cc2)cc1`, with 197 to 198 °C; and `O=C1C(=Cc2c(Cl)cccc2Cl)CCc2ccccc21`, with 73.8 to 75.6 °C; and `c1ccc(-c2nc3ncccc3o2)cc1`, with 125 to 127 °C.
In turn, `Cc1ccc(Oc2ccc(Cl)cn2)c(Oc2ccc(Cl)cn2)c1` came in with a melting point of 87 to 90 °C.
Take `COc1ccc(Cn2c3ccccc3c3c(N)c4c(nc32)CC(c2ccccc2)CC4=O)cc1` (stereo not drawn): the melting point is 163 to 165 °C.
Compound `CCCCOCCOC(=O)C(=O)Nc1nc(-c2ccccc2)cs1` came in with a melting point of 94 to 95 °C.
As for `OCC(O)CNCC(O)C(O)C(O)C(O)CO` (stereo not drawn), the melting point was in the range of 133 to 134 °C.
Then `COc1cc(OCCCN2CCN(c3nn(C(=O)c4ccccc4)c4cc(F)ccc34)CC2)ccc1C(C)=O`, with 138 to 140 °C.
Consider `CCOC(=O)c1c(-c2ccccc2)c(-c2ccc(F)cc2)c(C=O)n1C(C)C`, for which the melting point fell in the range of 88 to 90 °C.
The compound `O=c1c2ccccc2oc2cc(OCC(O)CCl)cc(O)c12` (stereo not drawn) yielded a melting point of 144 °C.
On to `CCOC(=O)c1cnc2c(NC(=O)c3c(Cl)cccc3Cl)cccc2c1C`, for which the melting point lay in the range of 159 to 162 °C.
For the compound `NC(=O)Cc1ccc2c(c1)C(=O)Cc1cccnc1O2`, the melting point was in the range of 214 to 217 °C.
The same measure for `COc1cccc2c1nc(C(F)F)n2-c1nc(Nc2cccnc2)nc(N2CCOCC2)n1`: 221 to 223 °C.
For the compound `CCCn1nc2c(N)nc3ccccc3c2c1CCNC(=O)OCC`, the melting point lay within 143 to 144 °C.
Compound `O=C(O)CCc1cn(Cc2ccc(OCc3noc(-c4ccccc4)n3)cc2)nc1-c1ccccc1` gave a melting point of 166 to 167 °C.
For the compound `C#CCN(Cc1cc2c(=O)[nH]c(COC(C)=O)nc2cc1Cl)c1ccc(C(=O)OC(C)(C)C)cc1`, the melting point was in the range of 219 to 220 °C.
Consider `N#Cc1ncn(Cc2ccc(Cl)c(Cl)c2)c1C#N`, for which the melting point is 95 to 96 °C.
Compound `CCOC(=O)C1=C(C=O)Nc2ccnc(OC(C)C)c2C1c1ccccc1C(F)(F)F` (stereo not drawn) displayed a melting point of 108 to 109 °C.
The compound `CCCCOc1c(\C(C)=C/C=C/C(C)=C/C(=O)O)cc(C(C)(C)C)cc1C(C)(C)C` displayed a melting point of 148 to 151 °C.
Then `C/C(=C\CO)c1ccc(OCc2nc(-c3ccccc3)oc2C)cc1`, with 126 to 127 °C; and `COc1ccc(C2=CCC(=O)CC2)c2c1OCCO2`, with 56 to 59 °C; and `CCOC(=O)c1cc(C#N)c(C)nc1NC`, with 103 to 105 °C.
`COc1c(Cc2ccccc2)ccc2ccccc12` gave a melting point of 56 to 59 °C.
Then `CCCCCC(=O)CCC1CCC(CCCCCCCC(=O)O)O1` (stereo not drawn), with 26 to 28 °C; and `CC12CC3OC3CC1CCC1C2CCC2(C)C(O)C(N3CCCC3)CC12` (stereo not drawn), with 156 to 160 °C; and `COc1cc(Nc2nccc(-c3nc4ccccc4s3)n2)cc(OC)c1OC`, with 182 to 183 °C.
The same measure for `CC(=O)c1c(NC(=O)C(C)(C)C)cccc1C(F)(F)F`: 142 °C; for `CC(C)OC(=O)N1CCN(c2ccc3oc(-c4ccc(S(C)(=O)=O)cc4F)nc3c2)CC1`: 231 to 234 °C.
In turn, `O=C(O)CCc1c(Cl)cccc1-c1cccs1` came in with a melting point of 83 to 86 °C.
The compound `OCc1cc(Cl)ccc1I` came in with a melting point of 115 to 117 °C.
`COC(=O)c1cc2c3cc(Br)ccc3n(Cc3ccccc3)c2s1` returned a melting point of 134 to 135 °C.
In turn, `CS(=O)(=O)C1CCCC1Br` (stereo not drawn) registered a melting point of 50 to 52 °C.
Then `Cc1c(C)c2c(c(C)c1OCc1ccccc1)CC[C@@](C)(CC(=O)CC(=O)OCc1ccccc1)O2`, with 72.5 to 74 °C; and `O=C(C1NCCc2sccc21)N1CCCC1` (stereo not drawn), with 114 to 116 °C.
In the case of `COc1ccc(C2=NOC3(CCOC3=O)C2)cc1OC1CCCC1` (stereo not drawn), the melting point lay within 152 to 153 °C.
Compound `CCOC(=O)[C@H](C)N[P@@]1(=O)OC[C@H]2O[C@@H](n3cnc4c(OCC)nc(N)nc43)[C@](C)(F)[C@@H]2O1` displayed a melting point of 195 to 197 °C.
The same measure for `Cc1cc2c(cc1O)C(C)(C)CC1(CC(C)(C)c3cc(OCCCn4ccnc4)c(C)cc3O1)O2` (stereo not drawn): 209 to 211 °C; for `Cc1cc(C(O)(C(F)(F)F)C(F)(F)F)cc(C)c1NCCCN`: 130 to 133 °C.
On to `Cn1nnnc1CC(=O)c1cc(F)c(F)cc1N`, for which the melting point fell in the range of 162 to 164 °C.
As for `COC(=O)c1c([N+](=O)[O-])c(OC)c2c(=O)[nH]c(C)nc2c1OC`, the melting point came out at 225 °C.
`CCC1OC(=O)CC(O)C(C)C(OC2OC(C)CC(N(C)C)C2O)C(CC=O)CC(C)C(=O)C=CC2(C)OC2C1C` (stereo not drawn) showed a melting point of 128 to 130 °C.
The same measure for `CC(C)c1ccc(N(Cc2ccc(N(C)C)cc2)C(=O)C2CC(=O)Nc3ccccc32)cc1` (stereo not drawn): 170 °C; for `O=C1c2ccccc2C(=O)N1C1CN(C(c2ccccc2)c2ccccc2)C1`: 118 to 120 °C; for `CCOCc1nc2c(N)nc3ccccc3c2n1CCOCCNS(C)(=O)=O`: 152 to 155 °C.
The compound `CCOC(=O)C(=O)c1cn(CCN2CCOCC2)c2ccccc12` showed a melting point of 99 to 100 °C.
`Cc1c(NC(=O)CCCC(=O)c2ccc(F)cc2)ccc2cc(CN3CCCC3)cnc12` had a melting point of 170 to 171 °C.
Then `O=S(=O)(c1nc(-c2ccc(Cl)c(Cl)c2)c(-c2cccs2)[nH]1)C(F)(F)C(F)F`, with 158 to 160 °C; and `CCCCCC1(c2ccc(C)cc2)OCc2c(O)c(C)nc(Cl)c21` (stereo not drawn), with 180 °C.
For `Cc1ccc(-c2cc(C)c(C(=O)N=C(N)N)cc2S(C)(=O)=O)cc1`, the melting point is 222 to 224 °C.
For the compound `CC(=CN(C)C)C(=O)c1cccc(C(F)(F)F)c1`, the melting point fell in the range of 53 to 55 °C.
Regarding `CC(C)(C)[Si](C)(C)OC1C(n2ccc(=O)[nH]c2=O)OC(CO)C1(O)C#C[Si](C)(C)C` (stereo not drawn), the melting point is 188 to 189 °C.
`CCCNC(=O)C(C)Cc1ccc2c(c1)c(Cc1ccc(C(=O)NS(=O)(=O)c3ccccc3C)cc1OC)cn2CCC(=O)N(C)C` (stereo not drawn) had a melting point of 120 to 132 °C.
`COC(=O)C(O)C(NCc1ccccc1)c1ccc([N+](=O)[O-])cc1` (stereo not drawn) came in with a melting point of 147 to 149 °C.
The same measure for `CC1CC(=O)C=C2C=CC3C4CCC(=O)C4(C)CCC3C21C` (stereo not drawn): 171 °C; for `O=C(O)c1cc(=O)c2c(OCC(O)COc3ccc(Br)cc3)cccc2o1` (stereo not drawn): 192 to 194 °C.
The same measure for `CC(=O)c1c(-c2ccc(F)cc2)nn(CC2CC2)c(=O)c1Nc1cccc2ncccc12`: 169 to 170 °C; for `CS(=O)(=O)c1ccc(-n2cc(C(F)(F)F)nc2-c2ccc(-c3cccs3)cc2)cc1`: 95 to 97 °C.
Take `COC(=O)c1ccc(-c2ccncc2)c(C)c1`: the melting point fell in the range of 70 to 71 °C.
The same measure for `COc1cc2ncnc(N3CCN(C(=S)Nc4cc(C)cs4)CC3)c2cc1OC`: 214 to 216 °C.
In the case of `CCOC(=O)C1=C(C)NC(C)=C(C(=O)OCC)C1c1ccccc1S(C)=O` (stereo not drawn), the melting point is 232 to 233 °C.
